{"source": "patent US11026875B2", "about": "“Skin restoration product” (Givaudan SA, priority 2016, dated 2021)", "system": "normal human dermal fibroblasts (NHFs)", "assay": "N-sulfated GAG (heparan sulfate) synthesis (production + liberation) by normal human dermal fibroblasts", "assay_type": "cell-based", "conditions": "72 h, cells pellets + supernatants, reported to total proteins, composition at 1 mM", "protocol": "The composition was applied at 0.5 and 1 mM to normal human dermal fibroblasts (NHFs) over a period of 72 hours. Normal human fibroblasts (NHFs), were isolated from the skin dermis of Caucasian women donors (plastic surgery). Cells were seeded at 80 000 fibroblasts/well in 24-wells plates and were left to adhere for 24 hours at 37° C./5% CO2 in complete DMEM (Dulbecco's Modified Eagle Medium) (with antibiotics and FBS, fetal bovine serum).\nThe cells were then treated with the composition in non-supplemented medium (without FBS) for 72 hours and incubated at 37° C./5% CO2, and then total sGAG (sulfated Glycosaminoglycans) and HS (Heparan sulfate, or N-sulfated GAG) were dosed in culture supernatants and cells pellets (total proteins were dosed in cells pellets). Each product concentration was tested in duplicate. Furthermore, dosages were reported as a proportion of total amount of proteins. At the end of treatment, supernatants were collected. Cells were lysed in a papain containing buffer (Papaya latex Sigma P3125). Cells extracts were collected and centrifuged. Supernatants and cells pellets were dosed for sGAG, HS, or total proteins.\nsGAG and HS dosage principles: Total sulfated GAG (sGAG), were dosed using the Blyscan™ sGAG Assay kit (Biocolor B1000 or B3000). The Blyscan™ assay is a quantitative dye-binding method for the analysis of sulfated proteoglycans and glycosaminoglycans (sGAG). The dye label used in the assay is 1,9-dimethylmethylene blue and the dye is employed under conditions that provide a specific label for the sulfated polysaccharide component of proteoglycans or the protein free sulfated glycosaminoglycan chains. The method consists of adding a specific blue dye reagent to an aliquot of supernatants or cells pellets which makes sGAG precipitate (a complex dye-sGAG is formed and precipitates out from the soluble unbound dye).\nCentrifugation permitted the collection of a pellet of precipitate at the tube bottom. After having carefully drained the dye, the pellet was solubilized in a dissociation reagent (5-10% Sodium dodecyl sulphate). Absorbance was read at 656 nm in duplicate, in a 96-wells microplate. […] After this reaction, O-sGAG level can be measured using the protocol as normal, and N-sulfated content was subsequently calculated from the difference between the total sGAG value (determined earlier) and the O-sGAG content.\nTotal proteins dosage principle: Total proteins dosage in cells pellets was performed in parallel by colorimetric method based on bicinchoninic acid (BCA). […] The amount of reduction and of BCA-Cu^+ complex is proportional to the protein concentration present and is quantified by spectrophotometric lecture at 570 nm. […]"}
{"substance": "TGF beta: transforming growth factor beta, used as positive control", "values": [{"measurement": "N-sulfated GAG synthesis improvement", "setting": "donor one fibroblasts", "value": "+43%"}, {"measurement": "N-sulfated GAG synthesis improvement", "setting": "donor one fibroblasts, listed as TGFβ", "value": "+43%"}, {"measurement": "N-sulfated GAG synthesis improvement", "setting": "donor two fibroblasts", "value": "+24%"}, {"measurement": "N-sulfated GAG synthesis improvement", "setting": "donor two fibroblasts, listed as TGFβ", "value": "+24%"}]}
